The results in this text go back to ChEMBL document CHEMBL1122434, “Antitumor amino-substituted pyrido[3',4':4,5]pyrrolo[2,3-g]isoquinolines and pyrido[4,3-b]carbazole derivatives: synthesis and evaluation of compounds resulting from new side chain and heterocycle modifications” (J Med Chem, 1983).

One data set concerns Mus musculus. The experiment in a line: Acute toxicity in mice (LD100) after i.p. administration. The data set is classed as organism-based. The conditions noted are these: in vivo, ip.
Data set [1] has as its system L1210. The experiment in a line: Antitumor activity against L1210 leukemia cells measured as Median survival time at 2.5 mg/kg. The data set is classed as functional, Mus musculus.
A short description of data set [2]: Acute toxicity in mice (LD0) after i.p. administration (highest nontoxic dose). The data set is classed as organism-based. The conditions noted are these: mouse, in vivo, ip; read-out: LD0.
In data set [3] the test system is L1210. The experiment in a line: In vitro cytotoxicity against L1210 cell line as concentration required for 50% inhibition of cell growth. The settings on record: Mus musculus, read-out: ID50 (the source's name). The data set is classed as functional.
The test system of data set [4] is L1210. The experiment in a line: Antitumor activity against L1210 leukemia cells measured as range of death at 2.5 mg/kg; value may range from 12 to 19. The data set is classed as functional, Mus musculus.
Data set [5] relates to L1210. Put plainly: Cytotoxicity against L1210 tumor cell line, activity is expressed as K (inverse value of drug concentration). The data set is classed as functional, cell-based. The settings on record: Mus musculus.
Data set [6] concerns L1210. The experiment in a line: Antitumor activity against L1210 leukemia cells measured as range of death at 10 mg/kg; value may range from 16 to 20. The settings on record: Mus musculus.
Data set [7] concerns L1210. The experiment in a line: Antitumor activity against L1210 leukemia cells measured as Median survival time at 10 mg/kg. The data set is classed as functional, Mus musculus.
The subject of data set [8] is L1210. The experiment in a line: Antitumor activity against L1210 leukemia cells measured as percent increase in life span (% ILS) at 10 mg/kg. The data set is classed as functional. The conditions noted are these: Mus musculus.
Data set [9] deals with L1210. The experiment in a line: Antitumor activity against L1210 leukemia cells measured as Median survival time at 20 mg/kg. The data set is classed as functional, Mus musculus.
Data set [10] relates to L1210. Put plainly: Antitumor activity against L1210 leukemia cells measured as range of death at 20 mg/kg; value may range from 15 to 19. The data set is classed as functional, Mus musculus.
In data set [11] the test system is L1210. Put plainly: Antitumor activity against L1210 leukemia cells measured as Median survival time at 3.75 mg/kg. The data set is classed as functional, Mus musculus.
Data set [12] deals with L1210. The experiment in a line: Antitumor activity against L1210 leukemia cells measured as range of death at 3.75 mg/kg; value may range from 15 to 21. The data set is classed as functional, Mus musculus.
Data set [13] has as its system L1210. Put plainly: Antitumor activity against L1210 leukemia cells measured as Median survival time at 15 mg/kg. The data set is classed as functional, Mus musculus.
Data set [14] relates to L1210. Put plainly: Antitumor activity against L1210 leukemia cells measured as range of death at 15 mg/kg; value may range from 19 to 35. The data set is classed as functional, Mus musculus.
Data set [15] relates to L1210. Put plainly: Antitumor activity against L1210 leukemia cells measured as range of death at 2.5 mg/kg; value may range from 14 to 19. The data set is classed as functional, Mus musculus.
The subject of data set [16] is L1210. The experiment in a line: Antitumor activity against L1210 leukemia cells measured as Median survival time at 25 mg/kg. The data set is classed as functional, Mus musculus.
Data set [17] has as its system L1210. Put plainly: Antitumor activity against L1210 leukemia cells measured as range of death at 25 mg/kg; value may range from 14 to 19. The conditions noted are these: Mus musculus.
Data set [18] concerns L1210. Put plainly: Antitumor activity against L1210 leukemia cells measured as range of death at 12.5 mg/kg; value may range from 12 to 27. The data set is classed as functional, Mus musculus.
The test system of data set [19] is L1210. The experiment in a line: Antitumor activity against L1210 leukemia cells measured as Median survival time at 12.5 mg/kg. The data set is classed as functional, Mus musculus.
Data set [20] relates to L1210. The experiment in a line: Antitumor activity against L1210 leukemia cells measured as range of death at 15 mg/kg; value may range from 7 to 44. The conditions noted are these: Mus musculus.
In data set [21] the test system is L1210. Put plainly: Antitumor activity against L1210 leukemia cells measured as range of death at 10 mg/kg; value may range from 8 to 28. The data set is classed as functional, Mus musculus.

Molecules are shown by their SMILES.

Molecule `CCNCCCNc1nccc2c(C)c3c(c(C)c12)c1cc(O)ccc1n3C` showed an LD100 in the data set with Mus musculus of 25 mg/kg. Also, the MST with L1210 [1] came to 14.5 days. Moreover, the MTD in data set [2] stood at 10 mg/kg. The IC50 in the data set on L1210 [3] came out at 20 nM. Also, the Range of death in the data set with L1210 [4] was 19 days. In addition, the K with L1210 [5] stood at 50 µM⁻¹.

In general, ILS refers to how much longer treated animals lived than controls. A higher ILS goes with much gain in survival. In turn, `CCN(CC)CCCNc1nccc2c(C)c3[nH]c4ccncc4c3c(C)c12` came in with a Range of death with L1210 [6] of 20 days. The same molecule showed an MST in the data set with L1210 [7] of 16.8 days. The molecule further yielded an LD100 in the data set on Mus musculus of 20 mg/kg. The molecule also registered an ILS at 10 mg/kg in the data set on L1210 [8] of 46%. Further, the MTD in data set [2] was 10 mg/kg. Moreover, the IC50 in the data set with L1210 [3] stood at 7 nM. The molecule also registered a K in the data set with L1210 [5] of 143 µM⁻¹.

On to `CCN(CCCN)CCCNc1nccc2c(C)c3[nH]c4ccncc4c3cc12`, for which, in the data set with L1210 [9], the MST is 17 days. In addition, the LD100 with Mus musculus amounted to 40 mg/kg. In addition, the Range of death in the data set on L1210 [10] stood at 19 days. The MTD in data set [2] is 20 mg/kg. The IC50 with L1210 [3] was determined as 200 nM. Further, in the data set on L1210 [5], the K is 5 µM⁻¹.

Take `COc1ccc2[nH]c3c(C)c4ccnc(NCCCN(CCO)CCO)c4c(C)c3c2c1`: the LD100 with Mus musculus stood at 15 mg/kg. Also, in data set [2], the MTD worked out at 10 mg/kg. Besides, the IC50 with L1210 [3] was determined as 400 nM. For the same molecule, in the data set with L1210 [11], the MST is 18.4 days. In the data set with L1210 [5], the K is 2.5 µM⁻¹. The molecule also registered a Range of death in the data set with L1210 [12] of 21 days.

As to `CCN(CC)CCCNc1nccc2c(C)c3[nH]c4ccc(OC)cc4c3c(C)c12` [RETELLIPTINE], in the data set on Mus musculus, the LD100 worked out at 60 mg/kg. The MST in the data set on L1210 [13] turned out to be 29.5 days. The MTD in data set [2] was determined as 15 mg/kg. The Range of death with L1210 [14] is 35 days. The IC50 in the data set on L1210 [3] came out at 30 nM. Besides, the K in the data set with L1210 [5] is 30 µM⁻¹.

For the molecule `CCN(CC)CCCNc1nccc2c(C)c3[nH]c4ccc(O)cc4c3c(C)c12`, the LD100 in the data set with Mus musculus is 10 mg/kg. The molecule also had an MST with L1210 [1] of 16.5 days. Besides, in [2], the MTD is 3 mg/kg. In addition, the IC50 with L1210 [3] was found to be 30 nM. Also, in the data set on L1210 [5], the K was found to be 33 µM⁻¹. Further, the Range of death in the data set with L1210 [15] was found to be 19 days.

In turn, `Cc1c2ccnc(NCCCN(CCO)CCO)c2cc2c3c[nH]ccc-3nc12` showed an MST in the data set on L1210 [16] of 15.5 days. This molecule also gave an LD100 with Mus musculus of 100 mg/kg. For the same molecule, in data set [2], the MTD is 30 mg/kg. In addition, in the data set with L1210 [3], the IC50 stood at 600 nM. This molecule also registered a K with L1210 [5] of 1.7 µM⁻¹. In the data set on L1210 [17], this molecule registered a Range of death of 19 days.

`CCN(CC)CCCNc1nccc2c(C)c3[nH]c4ccc(O)cc4c3cc12` registered an LD100 in the data set on Mus musculus of 7 mg/kg. Moreover, the MST in the data set with L1210 [1] amounted to 16.4 days. Besides, in data set [2], the MTD is 2.5 mg/kg. For the same molecule, the IC50 with L1210 [3] was 20 nM. In the data set on L1210 [5], this molecule had a K of 50 µM⁻¹. In the data set on L1210 [15], this molecule gave a Range of death of 19 days.

`CCN(CC)CC(O)CNc1nccc2c(C)c3[nH]c4ccncc4c3cc12` (stereo not drawn): in the data set on Mus musculus, the LD100 stood at 40 mg/kg. For the same molecule, the Range of death in the data set with L1210 [18] is 27 days. This molecule came in with an MST in the data set on L1210 [19] of 16.3 days. For the same molecule, in data set [2], the MTD was found to be 25 mg/kg. For the same molecule, the IC50 with L1210 [3] stood at 50 nM. For the same molecule, the K with L1210 [5] was determined as 20 µM⁻¹.

With `Cc1c2ccnc(NCCCN(C)C)c2c(C)c2c1[nH]c1ccncc12`, in the data set on Mus musculus, the LD100 amounted to 20 mg/kg. In the data set on L1210 [13], this molecule gave an MST of 25.2 days. In addition, in [2], the MTD was 15 mg/kg. The IC50 in the data set with L1210 [3] is 8 nM. In the data set on L1210 [20], this molecule returned a Range of death of 44 days. The K in the data set on L1210 [5] came to 125 µM⁻¹.

`CCNCCCNc1nccc2c(C)c3[nH]c4ccc(OC)cc4c3c(C)c12` returned an MST with L1210 [7] of 20 days. The molecule further had a Range of death in the data set with L1210 [21] of 28 days. This molecule yielded an LD100 with Mus musculus of 20 mg/kg. Further, in the data set with L1210 [8], the ILS at 10 mg/kg stood at 84%. The MTD in [2] worked out at 16 mg/kg. In addition, the IC50 in the data set on L1210 [3] worked out at 100 nM. The molecule further registered a K in the data set with L1210 [5] of 10 µM⁻¹.
